Where two headings read alike, the source gives them in different places.
Test system: Escherichia coli (ATCC25922) or Staphylococcus aureus (ATCC25923)
Assay: Antibacterial MIC, microdilution method in Mueller-Hinton medium
Type: cell-based
Details: Escherichia coli, 18 h, read-out: Potency (MIC)
Procedure, shortened: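 Two-fold serial dilutions from 64 to 0.5 μg/ml, in duplicate, by broth microdilution in Mueller-Hinton medium (NCCLS M7-A5). MIC taken as the lowest concentration preventing visible growth after 18 h at 35° C.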

[1] = MIC in E. coli or S. aureus, two-fold serial dilutions 64 to 0.5 μg/ml in duplicate, 18 hours of incubation at 35° C.

Row | MIC [1] [µg/mL] | SMILES | MIC [µg/mL]
1 |  | CN(C)c1ccc(C(=O)Nc2ccc(Nc3nc(N4C[C@H](N)C[C@H](N)C4)nc(N4C[C@H](N)C[C@H](N)C4)n3)cc2)c(O)c1 [N-[4-(4-dimethylamino-2-hydroxy-benzoylamino)-phenyl]-4,6-Bis-((3R,5S)-3,5-diamino-piperidin-1-yl)-[1,3,5]triazine-2-amine] | < 16
2 | < 16 | CCOc1ccc(C(=O)Nc2ccc(Nc3nc(N4CCCCC4)nc(N4CCCCC4)n3)cc2O)cc1.Cl [N-[4-(4-ethoxy-benzoylamino)-3-hydroxy-phenyl]-4,6-Bis-((3R,5S)-3,5-diamino-piperidin-1-yl)-1,3,5]triazine-2-amine] | 
3 |  | N[C@@H]1C[C@H](N)CN(c2nc(Nc3ccc(NC(=O)c4ccc(F)cc4O)c(O)c3)nc(N3C[C@H](N)C[C@H](N)C3)n2)C1 [N-[4-(4-fluoro-2-hydroxy-benzoylamino)-3-hydroxy-phenyl]-4,6-Bis-((3R,5S)-3,5-diamino-piperidin-1-yl)-[1,3,5]triazine-2-amine] | < 16
4 |  | N[C@@H]1C[C@H](N)CN(c2nc(Nc3ccc(NC(=O)c4ccc(F)cc4O)cc3)nc(N3C[C@H](N)C[C@H](N)C3)n2)C1 [N-[4-(4-fluoro-2-hydroxy-benzoylamino)-phenyl]-4,6-Bis-((3R,5S)-3,5-diamino-piperidin-1-yl)-[1,3,5]triazine-2-amine] | < 16
5 |  | N[C@@H]1C[C@H](N)CN(c2nc(Nc3ccc(C(=O)Nc4ccc(F)cc4)c(O)c3)nc(N3C[C@H](N)C[C@H](N)C3)n2)C1 [N-[4-(4-fluoro-phenylcarbamoyl)-3-hydroxy-phenyl]-4,6-Bis-((3R,5S)-3,5-diamino-piperidin-1-yl)-[1,3,5]triazine-2-amine] | < 16
6 | < 64 | COc1ccc(Nc2ccc(Nc3nc(N4C[C@H](N)C[C@H](N)C4)nc(N4C[C@H](N)C[C@H](N)C4)n3)cc2)cc1 [N-[4-(4-methoxy-phenylamino)-phenyl]-4,6-Bis-((3R,5S)-3,5-diamino-piperidin-1-yl)-[1,3,5]triazine-2-amine] | 
7 |  | Cc1ccnc(NS(=O)(=O)c2ccc(Nc3nc(N4C[C@H](N)C[C@H](N)C4)nc(N4C[C@H](N)C[C@H](N)C4)n3)cc2)n1 [N-[4-(4-methyl-pyrimidin-2-ylsulfamoyl)-phenyl]-4,6-Bis-((3R,5S)-3,5-diamino-piperidin-1-yl)-[1,3,5]triazine-2-amine] | > 64
8 |  | N[C@@H]1C[C@H](N)CN(c2nc(Nc3ccc(S(=O)(=O)c4ccc([N+](=O)[O-])cc4)cc3)nc(N3C[C@H](N)C[C@H](N)C3)n2)C1 [N-[4-(4-nitro-benzenesulfonyl)-phenyl]-4,6-Bis((3R,5S)-3,5-diamino-piperidin-1-yl)-[1,3,5]triazine-2-amine] | < 64
9 |  | N[C@@H]1C[C@H](N)CN(c2nc(Nc3ccc(C(=O)N4CCc5cc(Br)ccc54)c(O)c3)nc(N3C[C@H](N)C[C@H](N)C3)n2)C1 [N-[4-(5-bromo-2,3-dihydro-indole-1-carbonyl)-3-hydroxy-phenyl]-4,6-Bis-((3R,5S)-3,5-diamino-piperidin-1-yl)-[1,3,5]triazine-2-amine] | < 16
10 |  | N[C@@H]1C[C@H](N)CN(c2nc(Nc3ccc(NC(=O)c4cc(Br)ccc4O)c(O)c3)nc(N3C[C@H](N)C[C@H](N)C3)n2)C1 [N-[4-(5-bromo-2-hydroxy-benzoylamino)-3-hydroxy-phenyl]-4,6-Bis-((3R,5S)-3,5-diamino-piperidin-1-yl)-[1,3,5]triazine-2-amine] | < 16
11 |  | N[C@@H]1C[C@H](N)CN(c2nc(Nc3ccc(NC(=O)c4cc(Br)ccc4O)cc3)nc(N3C[C@H](N)C[C@H](N)C3)n2)C1 [N-[4-(5-bromo-2-hydroxy-benzoylamino)-phenyl]-4,6-Bis-((3R,5S)-3,5-diamino-piperidin-1-yl)-[1,3,5]triazine-2-amine] | < 16
12 | < 64 | Cc1cc(Nc2nc(N3CCCCC3)nc(N3CCCCC3)n2)ccc1N1C(=O)c2ccc(Cl)cc2C1=O.Cl [N-[4-(5-chloro-1,3-dioxo-1,3-dihydro-isoindol-22-yl)-3-methyl-phenyl]-4,6-Bis-((3R,5S)-3,5-diamino-piperidin-1-yl)-[1,3,5]triazine-2-amine] | 
13 |  | Cc1ccc2nc(-c3ccc(Nc4nc(N5C[C@H](N)C[C@H](N)C5)nc(N5C[C@H](N)C[C@H](N)C5)n4)cc3)sc2c1 [N-[4-(6-methyl-benzothiazol-2-yl)-phenyl]-4,6-Bis-((3R,5S)-3,5-diamino-piperidin-1-yl)-[1,3,5]triazine-2-amine] | < 16
14 | < 16 | Cl.O=[N+]([O-])c1ccc(S(=O)(=O)c2ccc(Nc3nc(N4CCCCC4)nc(N4CCCCC4)n3)cc2)cc1 [N-[4-((2,4-dimethoxy-benzoylamino)-3-hydroxy-phenyl]-4,6-Bis-((3R,5S)-3,5-diamino-piperidin-1-yl)-[1,3,5]triazine-2-amine] | 
15 | > 64 | CNC(=N)Nc1ccc(Nc2nc(C3CCCCC3)nc(N3CCCCC3)n2)cc1.Cl [N-[4-(N-methyl-quanidino)-phenyl]-4,6-Bis-((3R,5S)-3,5-diamino-piperidin-1-yl)-[1,3,5]triazine-2-amine] | 
16 |  | N[C@@H]1C[C@H](N)CN(c2nc(Nc3ccc(C(=O)Nc4ccc5c(c4)OCO5)c(O)c3)nc(N3C[C@H](N)C[C@H](N)C3)n2)C1 [N-[4-(benzo[1,3]dioxol-5-ylcarbamoyl)-3-hydroxy-phenyl]-4,6-Bis-((3R,5S)-3,5-diamino-piperidin-1-yl)-[1,3,5]triazine-2-amine] | < 16

Row | MIC [1] [µg/mL] | SMILES | MIC [µg/mL]
17 |  | N[C@@H]1C[C@H](N)CN(c2nc(Nc3ccc(C(=O)Nc4ccc(-c5ccccc5)cc4)c(O)c3)nc(N3C[C@H](N)C[C@H](N)C3)n2)C1 [N-[4-(biphenyl-4-ylcarbamoyl)-3-hydroxy-phenyl]-4,6-Bis-((3R,5S)-3,5-diamino-piperidin-1-yl)-[1,3,5]triazine-2-amine] | < 16
18 |  | CCN(c1ccc(Nc2nc(N3C[C@H](N)C[C@H](N)C3)nc(N3C[C@H](N)C[C@H](N)C3)n2)cc1)C(C)C [N-[4-(ethyl-isopropyl-amino)-phenyl]-4,6-Bis-((3R,5S)-3,5-diamino-piperidin-1-yl)-[1,3,5]triazine-2-amine] | > 64
19 |  | N[C@@H]1C[C@H](N)CN(c2nc(Nc3ccc(S(=O)(=O)Nc4ccccn4)cc3)nc(N3C[C@H](N)C[C@H](N)C3)n2)C1 [N-[4-(pyridin-2-ylsulfamoyl)-phenyl]-4,6-Bis-((3R,5S)-3,5-diamino-piperidin-1-yl)-[1,3,5]triazine-2-amine] | > 64
20 |  | N[C@@H]1C[C@H](N)CN(c2nc(NCc3ccc4c(c3)OCO4)nc(N3C[C@H](N)C[C@H](N)C3)n2)C1 [N-benzo[1,3]dioxol-5-ylmethyl-4,6-Bis-((3R,5S)-3,5-diamino-piperidin-1-yl)-[1,3,5]triazine-2-amine] | > 64
21 |  | N[C@@H]1C[C@H](N)CN(c2nc(Nc3nc4ccccc4s3)nc(N3C[C@H](N)C[C@H](N)C3)n2)C1 [N-benzothiazol-2-yl-4,6-Bis-((3R,5S)-3,5-diamino-piperidin-1-yl)-[1,3,5]triazine-2-amine] | < 64
22 |  | N[C@@H]1C[C@H](N)CN(c2nc(Nc3ccc(-c4ccccc4)cc3)nc(N3C[C@H](N)C[C@H](N)C3)n2)C1 [N-biphenyl-4-yl-4,6-Bis-((3R,5S)-3,5-diamino-piperidin-1-yl)-[1,3,5]triazine-2-amine] | < 64
23 |  | N[C@@H]1C[C@H](N)CN(c2nc(NCc3ccc(-c4ccccc4)cc3)nc(N3C[C@H](N)C[C@H](N)C3)n2)C1 [N-biphenyl-4-ylmethyl-4,6-Bis-((3R,5S)-3,5-diamino-piperidin-1-yl)-[1,3,5]triazine-2-amine] | < 64
24 | > 64 | Cl.NC(=O)CNc1nc(N2C[C@H](N)C[C@H](N)C2)nc(N2C[C@H](N)C[C@H](N)C2)n1 [N-carbamoylmethyl-4,6-Bis-((3R,5S)-3,5-diamino-piperidin-1-yl)-[1,3,5]triazine-2-amine] | 
25 | > 64 | Cl.N[C@@H]1C[C@H](N)CN(c2nc(NCc3ccco3)nc(N3C[C@H](N)C[C@H](N)C3)n2)C1 [N-furan-2-ylmethyl-4,6-Bis-((3R,5S)-3,5-diamino-piperidin-1-yl)-[1,3,5]triazine-2-amine] | 
26 | > 64 | N[C@@H]1CC(c2nc(NCc3ccco3)nc(N3C[C@H](N)C[C@H](N)C3)n2)C[C@H](N)C1 (stereo partly drawn) [N-furan-2-ylmethyl-44,6-Bis-((3R,5S)-3,5-diamino-piperidin-1-yl)-[1,3,5]triazine-2-amine] | 
27 | > 64 | Cl.N[C@@H]1C[C@H](N)CN(c2nc(Nc3ccc4c(c3)CCC4)nc(N3C[C@H](N)C[C@H](N)C3)n2)C1 [N-indan-5-yl-4,6-Bis-((3R,5S)-3,5-diamino-piperidin-1-yl)-[1,3,5]triazine-2-amine] | 
28 | > 64 | Cl.N[C@@H]1C[C@H](N)CN(c2nc(Nc3ccon3)nc(N3C[C@H](N)C[C@H](N)C3)n2)C1 [N-isoxazol-3-yl-4,6-Bis-((3R,5S)-3,5-diamino-piperidin-1-yl)-[1,3,5]triazine-2-amine] | 
29 |  | N[C@@H]1C[C@H](N)CN(c2nc(Nc3ccc4ccccc4c3)nc(N3C[C@H](N)C[C@H](N)C3)n2)C1 [N-naphthalene-2-yl-4,6-Bis-((3R,5S)-3,5-diamino-piperidin-1-yl)-[1,3,5]triazine-2-amine] | < 64
30 | > 64 | Cl.N[C@@H]1C[C@H](N)CN(c2nc(Nc3ccccc3)nc(N3C[C@H](N)C[C@H](N)C3)n2)C1 [N-phenyl-44,6-Bis-((3R,5S)-3,5-diamino-piperidin-1-yl)-[1,3,5]triazine-2-amine] | 
31 | > 64 | N[C@@H]1C[C@H](N)CN(c2nc(NC3CCCNC3)nc(N3C[C@H](N)C[C@H](N)C3)n2)C1 (stereo partly drawn) [N-piperidin-3-yl-4,6-Bis-((3R,5S)-3,5-diamino-piperidin-1-yl)-[1,3,5]triazine-2-amine] | 
32 | > 64 | N[C@@H]1CC(c2nc(NC3CCNCC3)nc(N3C[C@H](N)C[C@H](N)C3)n2)C[C@H](N)C1 (stereo partly drawn) [N-piperidin-4-yl-4,6-Biss-((3R,5S)-3,5-diamino-piperidin-1-yl)-[1,3,5]triazine-2-amine] | 
